Measured values as given in paper PMC11965660, “Isobavachalcone ameliorates Alzheimer disease pathology by autophagy-mediated clearance of amyloid beta and inhibition of NLRP3 inflammasome in primary astrocytes and 5x-FAD mice” (Frontiers in Pharmacology, 2025).
Entries after “also recorded” stand apart in the source; their conditions may differ. Where two headings read alike, the source gives them in different places.

Legend:
[1] = Pharmacokinetic analysis in plasma and brain; format: in vivo; conditions: C57BL/6J mice
Method: C57BL/6J (Jax:000664) male mice were used for pharmacokinetic analysis of IBC. Mice were randomly sorted into 9 groups (n = 5). 30 mg/kg oral dose of IBC (1% DMSO +70% PEG-200 + 29% water) was given to mice. Blood or brain samples were collected at 0, 0.25, 0.5, 1, 2, 4, 6, 8 and 24 h. The plasma (100 µL) sample was processed with ethyl acetate (200 µL) containing IS (150 ng/mL) and centrifuged at 300 g for 10 min. The organic layer was separated and dried in a vacuum, reconstituted with acetonitrile, and analyzed by LC-MS/MS [SRM transition of IBC and IS (Phenacetin) is 325.2 & gt; 149.0 and 180.2 & gt; 110.2 in Positive mode]. Brain homogenate was prepared using the weighted amount of brain tissue in water at the concentration level of 350 mg/mL and processed similarly to plasma samples.

5x-FAD mice = assay: Radial arm maze test; format: in vivo; conditions: for Latency to first entry to baited arm: 5x-FAD mice
From the text: (§1) Hemizygous 5x-FAD transgenic mice (B6.Cg-Tg(APPSwFlLon, PSEN1*M146L*L286V) 6799Vas/Mmjax; MMRRC Strain: 034848-JAX) on congenic C57BL/6J genetic background were used for experiments. The 5x-FAD mice were genotyped using APP-specific qPCR probes to detect the transgene as per the protocol of Jackson Laboratory. Six months old 5x-FAD mice were randomly divided into three groups (n = 5), based on their body weights, with three males and two females in each group. We used mixed-cohort of males and females for our study to exclude any gender biased effect of IBC. Also, AD symptoms are more pronounced in females than in males ([Aggarwal and Mielke, 2023]), making it possible that males and females respond differently to the drug and treatment. Considering this, it is important to show effect of IBC on both sexes. At this age, Aβ deposition and neuroinflammation has already progressed in these mice. We have used IBC as a curative drug rather than a preventive drug. Prior to the initiation of the study, all the animals were acclimatized for 1 week under standard laboratory conditions; animals were drug naive with no prior procedures performed. All testing were performed from 1 to 4 p.m. IBC was orally (OD) given to two groups at different doses, 25 mg/kg (1% DMSO, 2% Tween 80, 19% PEG200, and 78% distilled water) and 50 mg/kg (1% DMSO, 5% Tween 80, 19% PEG200% and 75% distilled water) using oral gavage. 5x-FAD control mice were administered with vehicle (1% DMSO, 5% Tween 80, 19% PEG200% and 75% distilled water). For behavioral and Immunohistochemistry assays, experimenters were blinded to animal identity while carrying out the procedures.
To check the effect of IBC on the behavior of 5x-FAD mice, open field test (OFT), rotarod (Make; Ugo Basile, rota-rod for mice 7650) and radial arm maze (Make; Ugo Basile) tests were performed. All behavioral assays and testing were performed by an experimenter blinded to the treatment groups. To check the effect of IBC on motor coordination and balancing rotarod test was performed. After acclimatizing mice with rotarod for 5 days, their latency to fall was calculated on the day of analysis. The given final values are the mean of three independent attempts of each mouse. OFT was performed to assess exploratory and locomotor activity in a white box (45 × 60 cm). Distance traveled, speed, time spent in corner and center zones and mobile episodes were recorded through an automated video tracking system using AnyMaze software. To check the effect of IBC on the spatial memory of mice, the eight-armed radial arm maze test was done. The mice were acclimatized to the maze for 5 days before the experiment. Each mouse was trained to navigate the maze for five consecutive days. The mouse was placed on the end of one arm (entry arm). For spatial memory assessment, a food reward (100 mg of butter cookies) was placed in the selected arm, which was considered as […]. The movement of mice was tracked with the help of automated AnyMaze software connected with a tracking camera and various memory retention parameters were assessed.

Aβ plaques = assay: Immunohistochemistry of Aβ in hippocampus; format: in vivo, 5x-FAD mice; conditions: for average number of Aβ plaques: 5x-FAD mice
From the text: as §1
Mice’s hippocampus tissue was fixed in 10% formalin. Dehydrated tissue slices were made and placed on slides. For analysis, tissue was rehydrated following subsequent incubation in xylene, xylene: ethanol, 100% ethanol, 90% ethanol, 70% and 50% ethanol. After tissue rehydration, cells were permeabilized using 0.4% Triton-X100 for 10 min. […] Images were taken in a CQ1 high throughput imaging system and analyzed using cell pathfinder software.

GFAP = assay: Immunohistochemistry of GFAP in hippocampus; format: in vivo, 5x-FAD mice; conditions: 25 and 50 mg/kg, vs 5x-FAD control
From the text: as §1, with “IBC was orally (OD) given to two groups at different doses, 25 mg/kg (1% DMSO, 2% Tween 80, 19% PEG200, and 78% distilled water) and 50 mg/kg (1% DMSO, 5% Tween 80, 19% PEG200% and 75% distilled water) using oral gavage. 5x-FAD control mice were administered with vehicle (1% DMSO, 5% Tween 80, 19% PEG200% and 75% distilled water). For behavioral and Immunohistochemistry assays, experimenters were blinded to animal identity while carrying out the procedures.” left out
Mice’s hippocampus tissue was fixed in 10% formalin. […] Images were taken in a CQ1 high throughput imaging system and analyzed using cell pathfinder software.

5x-FAD mice hippocampus = assay: Immunoblotting of autophagy, NLRP3 inflammasome and neuroinflammation proteins in hippocampus; format: in vivo; conditions: 25 and 50 mg/kg
Method: Cellular lysates were prepared using radio immuno precipitation assay (RIPA) buffer for protein analysis. Briefly, the cell pellet was dissolved in RIPA buffer containing sodium fluoride, sodium orthovanadate, phenyl methyl sulfonyl fluoride (PMSF) and 1% protease inhibitor cocktail for 1 h with vertexing sample every 15 min. The supernatant was collected after high-speed centrifugation of samples for 20 min at 4°C. For analysis of proteins in mice hippocampi, the hippocampi isolated from mice brains was immediately washed with saline and stored in liquid nitrogen. For lysates preparation, tissue was homogenized in RIPA buffer substituted with sodium fluoride, sodium orthovanadate, phenyl methyl sulfonyl fluoride and 1% protease inhibitor cocktail. Total protein was measured using Bradford assay. Proteins were separated using SDS-PAGE and then transferred from gel to PVDF membrane. The protein of interest was labeled with a specific primary antibody overnight at 4°C. Further, the blot was incubated with corresponding HRP-conjugated secondary antibody for 1 h at room temperature. The band were visualized in the Genaxy Chemi Doc imaging system (Make: Syngene, Maryland, USA; Model: G: BOX, XT-4). Densitometry analysis of all the immunoblots was performed by using ImageJ software. Band density of proteins was normalized with β-actin. The phosphorylated proteins were normalized with their total forms.
as §1

[2] = male, mouse, blood plasma, 30 mg/kg oral
[3] = male, mouse, brain, 30 mg/kg oral
[4] = 25 and 50 mg/kg oral, vs 5x-FAD control

- Cl ([1]; blood plasma, 30 mg/kg oral): 833 ± 120 mL/min/kg
- Vd ([1]; blood plasma, 30 mg/kg oral): 355 ± 81 L/kg
- AUC0-t ([1]; brain, 30 mg/kg oral): 72 ± 7 ng·h/g
- AUC0-∞ ([1]; brain, 30 mg/kg oral): 79 ± 7 ng·h/g
- Kp ([1]; male, mouse, brain and plasma, 30 mg/kg oral, read-out: brain-to-plasma ratio): 0.12 to 0.16
- AUC(0-inf) [1, 2]: 637 ± 74 ng·h/mL
- Cmax [1, 2]: 208 ± 46 ng/mL
- Tmax [1, 2]: 0.6 ± 0.1 h
- half-life [1, 2]: 5.6 ± 1.5 h
- AUC0-t ([1]; male, mouse, blood plasma, 30 mg/kg oral, read-out: AUC0-t): 548 ± 59 ng·h/mL
- Cmax [1, 3]: 34 ± 4 ng/g
- Tmax [1, 3]: 0.6 ± 0.1 h
- half-life [1, 3]: 1.8 ± 0.4 h
SMILES: CC(C)=CCc1c(O)ccc(C(=O)/C=C/c2ccc(O)cc2)c1O [IBC, isobavachalcone]
- blood-brain barrier penetration ([1]; single dose 30 mg/kg p.o., 30 mg/kg): low penetration; also recorded: low brain availability
- Latency to first entry to baited arm (5x-FAD mice; 25 mg/kg oral): 16.58 s
- Latency to first entry to baited arm (5x-FAD mice; 50 mg/kg oral): 14.36 s
- Baited arm time (5x-FAD mice; [4]): significantly longer time
- Distance traveled to find the baited arm (5x-FAD mice; [4]): significantly less distance
- Entries to non-baited arm (5x-FAD mice; [4]): smaller number of entries
- average number of Aβ plaques (Aβ plaques; 25 mg/kg oral 2 months): 21
- average number of Aβ plaques (Aβ plaques; 50 mg/kg oral 2 months): 15
- total Aβ fluorescence intensity (Aβ plaques; 25 and 50 mg/kg, vs 5x-FAD control): highly significant decline
- GFAP expression (IHC) (GFAP): significantly reduced
- GFAP expression (western blot) (5x-FAD mice hippocampus): decreased expression
- ASC level (5x-FAD mice hippocampus; western blot): significant abrogation
- ATG7 expression (5x-FAD mice hippocampus; western blot): increased expression
- CASP1 level (5x-FAD mice hippocampus; western blot): significant abrogation
- IBA1 expression (5x-FAD mice hippocampus; western blot): decreased expression
- SQSTM1 expression (5x-FAD mice hippocampus; western blot): significantly decreased
- cleavage of IL-1β (5x-FAD mice hippocampus; western blot): reduced cleavage
- pAMPK expression (5x-FAD mice hippocampus; western blot): increased expression
